{"source": "patent US7411083B2", "about": "“Substituted acetic acid derivatives” (Wyeth, priority 2003, dated 2008)", "data": [{"molecular_target": "T1, recombinant human plasminogen activator inhibitor-1 (PAI-1) (Homo sapiens, UniProt P05121)", "T1 construct": "purchased Molecular Innovations, Royal Oak, Mich", "T1 sequence (P05121 24-402)": "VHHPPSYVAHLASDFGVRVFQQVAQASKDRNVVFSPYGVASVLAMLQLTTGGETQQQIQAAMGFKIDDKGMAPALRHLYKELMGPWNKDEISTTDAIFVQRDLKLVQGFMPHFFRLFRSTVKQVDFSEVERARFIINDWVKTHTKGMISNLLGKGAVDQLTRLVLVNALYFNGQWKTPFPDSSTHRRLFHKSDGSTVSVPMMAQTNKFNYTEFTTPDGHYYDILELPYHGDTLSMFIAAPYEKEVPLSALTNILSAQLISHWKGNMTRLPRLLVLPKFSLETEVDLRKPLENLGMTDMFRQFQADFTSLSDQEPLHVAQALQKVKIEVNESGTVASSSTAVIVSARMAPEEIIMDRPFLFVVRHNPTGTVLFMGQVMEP", "assay": "Screening for PAI-1 inhibition (residual tPA activity, Spectrozyme-tPA chromogenic substrate)", "format": "biochemical", "conditions": "test compound at 100 Um; pH 6.6 buffer, 140 nM PAI-1, 70 nM tPA", "protocol": "Screening for PAI-1 inhibition. Test compounds are dissolved in DMSO at a final concentration of 10 Mm, then diluted 100× in physiologic buffer. The inhibitory assay is initiated by the addition of the test compound (1-100 μM final concentration, maximum DMSO concentration of 0.2%) in a Ph 6.6 buffer containing 140 Nm recombinant human plasminogen activator inhibitor-1 (PAI-1; Molecular Innovations, Royal Oak, Mich.). Following a 1 hour incubation at room temperature, 70 Nm of recombinant human tissue plasminogen activator (Tpa) is added, and the combination of the test compound, PAI-1 and Tpa is incubated for an additional 30 minutes. Following the second incubation, Spectrozyme-Tpa (American Diagnostica, Greenwich, Conn.), a chromogenic substrate for Tpa, is added and absorbance read at 405 nm at 0 and 60 minutes. Relative PAI-1 inhibition is equal to the residual Tpa activity in the presence of the test compounds and PAI-1. Control treatments include the complete inhibition of Tpa by PAI-1 at the molar ratio employed (2:1), and the absence of any effect of the test compound on Tpa alone.", "units": {"inhibition at 100 µM": "%"}, "values": [{"smiles": "CC(C)(C)c1ccc(COc2cccc(-c3ccc(/C=N/OCC(=O)O)cc3)c2)cc1", "note": "[Compound 89, {[((1E)-{3′-[(4-tert-butylbenzyl)oxy]-1,1′-biphenyl-4-yl}methylidene)amino]oxy}acetic acid]", "inhibition at 100 µM": 57}, {"smiles": "O=C(O)CO/N=C/c1cccc(-c2cccc(OCc3ccccc3Cl)c2)c1", "note": "[Compound 67, {[((1E)-{3′-[(2-chlorobenzyl)oxy]-1,1′-biphenyl-3-yl}methylidene)amino]oxy}acetic acid]", "inhibition at 100 µM": 87}, {"smiles": "Cc1cccc(COc2cc(/C=N/OCC(=O)O)cc(OCc3cccc(C)c3)c2)c1", "note": "[Compound 148, {[((1E)-{3,5-bis[(3-methylbenzyl)oxy]phenyl}methylidene)amino]oxy}acetic acid]", "inhibition at 100 µM": 88}, {"smiles": "Cc1cccc(COc2cccc(-c3cccc(/C=N/OCC(=O)O)c3)c2)c1", "note": "[Compound 71, {[((1E)-{3′-[(3-methylbenzyl)oxy]-1,1′-biphenyl-3-yl}methylidene)amino]oxy}acetic acid]", "inhibition at 100 µM": 85}, {"smiles": "C=CCn1cc(/C=N/OCC(=O)O)c2cc(OCc3ccc(C(F)(F)F)cc3)ccc21", "note": "[Compound 1, ({[(1E)-(1-allyl-5-{[4-(trifluoromethyl)benzyl]oxy}-1H-indol-3-yl)methylidene]amino}oxy)acetic acid]", "inhibition at 100 µM": 86}, {"smiles": "O=C(O)CO/N=C/c1cccc(-c2ccc(OCc3ccccc3Cl)cc2)c1", "note": "[Compound 82, {[((1E)-{4′-[(2-chlorobenzyl)oxy]-1,1′-biphenyl-3-yl}methylidene)amino]oxy}acetic acid]", "inhibition at 100 µM": 89}, {"smiles": "Cc1ccc(COc2ccc(OCc3ccc(C)cc3)c(/C=N/OCC(=O)O)c2)cc1", "note": "[Compound 160, {[((1E)-{2,5-bis[(4-methylbenzyl)oxy]phenyl}methylidene)amino]oxy}acetic acid]", "inhibition at 100 µM": 76}, {"smiles": "Cc1ccc(COc2cccc(/C=N/OCC(=O)O)c2OCc2ccc(C)cc2)cc1", "note": "[Compound 140, {[((1E)-{2,3-bis[(4-methylbenzyl)oxy]phenyl}methylidene)amino]oxy}acetic acid]", "inhibition at 100 µM": 94}, {"smiles": "O=C(O)CO/N=C/c1cccc(-c2cccc(OCc3ccc(C(F)(F)F)cc3)c2)c1", "note": "[Compound 58, ({[(1E)-(3′-{[4-(trifluoromethyl)benzyl]oxy}-1,1′-biphenyl-3-yl)methylidene]amino}oxy)acetic acid]", "inhibition at 100 µM": 84}, {"smiles": "O=C(O)CO/N=C/c1cc(OCc2ccc(Br)cc2)ccc1OCc1ccc(Br)cc1", "note": "[Compound 155, {[((1E)-{2,5-bis[(4-bromobenzyl)oxy]phenyl}methylidene)amino]oxy}acetic acid]", "inhibition at 100 µM": 85}, {"smiles": "O=C(O)CO/N=C/c1cc(OCc2cccc(Cl)c2)ccc1OCc1cccc(Cl)c1", "note": "[Compound 157, {[((1E)-{2,5-bis[(3-chlorobenzyl)oxy]phenyl}methylidene)amino]oxy}acetic acid]", "inhibition at 100 µM": 85}, {"smiles": "CCn1cc(/C=N/OCC(=O)O)c2cc(OCc3cccc(Cl)c3)ccc21", "note": "[Compound 17, {[((1E)-{5-[(3-chlorobenzyl)oxy]-1-ethyl-1H-indol-3-yl}methylidene)amino]oxy}acetic acid]", "inhibition at 100 µM": 68}, {"smiles": "Cc1cccc(COc2cccc(-c3ccc(/C=N/OCC(=O)O)cc3)c2)c1", "note": "[Compound 100, {[((1E)-{3′-[(3-methylbenzyl)oxy]-1,1′-biphenyl-4-yl}methylidene)amino]oxy}acetic acid]", "inhibition at 100 µM": 63}, {"smiles": "C=CCn1cc(/C=N/OCC(=O)O)c2cc(OCc3cccc(Br)c3)ccc21", "note": "[Compound 13, {[((1E)-{1-allyl-5-[(3-bromobenzyl)oxy]-1H-indol-3-yl}methylidene)amino]oxy}acetic acid]", "inhibition at 100 µM": 95}, {"smiles": "Cc1ccc(COc2ccc3c(c2)c(/C=N/OCC(=O)O)cn3Cc2ccccc2)cc1", "note": "[Compound 21, {[((1E)-{1-benzyl-5-[(4-methylbenzyl)oxy]-1H-indol-3-yl}methylidene)amino]oxy}acetic acid]", "inhibition at 100 µM": 80}, {"smiles": "CC(C)(C)c1ccc(COc2ccc(OCc3ccc(C(C)(C)C)cc3)c(/C=N/OCC(=O)O)c2)cc1", "note": "[Compound 156, {[((1E)-{2,5-bis[(4-tert-butylbenzyl)oxy]phenyl}methylidene)amino]oxy}acetic acid]", "inhibition at 100 µM": 99}, {"smiles": "O=C(O)CO/N=C/c1cn(Cc2ccccc2)c2ccc(OCc3ccc(Cl)c(Cl)c3)cc12", "note": "[Compound 53, {[((1E)-{1-benzyl-5-[(3,4-dichlorobenzyl)oxy]-1H-indol-3-yl}methylidene)amino]oxy}acetic acid]", "inhibition at 100 µM": 76}, {"smiles": "O=C(O)CO/N=C/c1cc(OCc2cccc(C(F)(F)F)c2)cc(OCc2cccc(C(F)(F)F)c2)c1", "note": "[Compound 149, ({[(1E)-(3,5-bis{[3-(trifluoromethyl)benzyl]oxy}phenyl)methylidene]amino}oxy)acetic acid]", "inhibition at 100 µM": 91}, {"smiles": "O=C(O)CO/N=C/c1cc(OCc2ccc(C(F)(F)F)cc2)cc(OCc2ccc(C(F)(F)F)cc2)c1", "note": "[Compound 144, ({[(1E)-(3,5-bis{[4-(trifluoromethyl)benzyl]oxy}phenyl)methylidene]amino}oxy)acetic acid]", "inhibition at 100 µM": 93}, {"smiles": "Cc1cccc(COc2ccc(-c3ccc(/C=N/OCC(=O)O)cc3)cc2)c1", "note": "[Compound 110, {[((1E)-{4′-[(3-methylbenzyl)oxy]-1,1′-biphenyl-4-yl}methylidene)amino]oxy}acetic acid]", "inhibition at 100 µM": 6}, {"smiles": "C=CCn1cc(/C=N/OCC(=O)O)c2cc(OCc3cc(C(F)(F)F)cc(C(F)(F)F)c3)ccc21", "note": "[Compound 10, ({[(1E)-(1-allyl-5-{[3,5-bis(trifluoromethyl)benzyl]oxy}-1H-indol-3-yl)methylidene]amino}oxy)acetic acid]", "inhibition at 100 µM": 86}, {"smiles": "CCn1cc(/C=N/OCC(=O)O)c2cc(OCc3ccccc3Cl)ccc21", "note": "[Compound 28, {[((1E)-{5-[(2-chlorobenzyl)oxy]-1-ethyl-1H-indol-3-yl}methylidene)amino]oxy}acetic acid]", "inhibition at 100 µM": 70}, {"smiles": "CCn1cc(/C=N/OCC(=O)O)c2cc(OCc3cccc(C)c3)ccc21", "note": "[Compound 26, {[((1E)-{1-ethyl-5-[(3-methylbenzyl)oxy]-1H-indol-3-yl}methylidene)amino]oxy}acetic acid]", "inhibition at 100 µM": 26}, {"smiles": "Cn1cc(/C=N/OCC(=O)O)c2cc(OCc3cccc(Br)c3)ccc21", "note": "[Compound 37, {[((1E)-{5-[(3-bromobenzyl)oxy]-1-methyl-1H-indol-3-yl}methylidene)amino]oxy}acetic acid]", "inhibition at 100 µM": 70}, {"smiles": "O=C(O)CO/N=C/c1cccc(-c2ccc(OCc3ccc(C(F)(F)F)cc3)cc2)c1", "note": "[Compound 73, ({[(1E)-(4′-{[4-(trifluoromethyl)benzyl]oxy}-1,1′-biphenyl-3-yl)methylidene]amino}oxy)acetic acid]", "inhibition at 100 µM": 59}, {"smiles": "O=C(O)CO/N=C/c1cccc(C#CCOc2cc(Cl)cc(Cl)c2)c1", "note": "[Compound 171, {[((1E)-{3-[3-(3,5-dichlorophenoxy)prop-1-ynyl]phenyl}methylidene)amino]oxy}acetic acid]", "inhibition at 100 µM": 69}, {"smiles": "C#CCn1cc(/C=N/OCC(=O)O)c2cc(OCc3ccc(Cl)cc3)ccc21", "note": "[Compound 44, [({(1E)-[5-[(4-chlorobenzyl)oxy]-1-(2-propynyl)-1H-indol-3-yl]methylidene}amino)oxy]acetic acid]", "inhibition at 100 µM": 83}, {"smiles": "C#CCn1cc(/C=N/OCC(=O)O)c2cc(OCc3cccc(Cl)c3)ccc21", "note": "[Compound 38, [({(1E)-[5-[(3-chlorobenzyl)oxy]-1-(2-propynyl)-1H-indol-3-yl]methylidene}amino)oxy]acetic acid]", "inhibition at 100 µM": 62}, {"smiles": "O=C(O)CO/N=C/c1ccc(OCc2ccc(C(F)(F)F)cc2)c(OCc2ccc(C(F)(F)F)cc2)c1", "note": "[Compound 114, ({[(1E)-(3,4-bis{[4-(trifluoromethyl)benzyl]oxy}phenyl)methylidene]amino}oxy)acetic acid]", "inhibition at 100 µM": 93}, {"smiles": "C=CCn1cc(/C=N/OCC(=O)O)c2cc(OCc3cccc(Cl)c3)ccc21", "note": "[Compound 16, {[((1E)-{1-allyl-5-[(3-chlorobenzyl)oxy]-1H-indol-3-yl}methylidene)amino]oxy}acetic acid]", "inhibition at 100 µM": 58}, {"smiles": "O=C(O)CO/N=C/c1cc(OCc2cccc(C(F)(F)F)c2)ccc1OCc1cccc(C(F)(F)F)c1", "note": "[Compound 152, ({[(1E)-(2,5-bis{[3-(trifluoromethyl)benzyl]oxy}phenyl)methylidene]amino}oxy)acetic acid]", "inhibition at 100 µM": 100}, {"smiles": "C=CCn1cc(/C=N/OCC(=O)O)c2cc(OCc3ccc4ccccc4c3)ccc21", "note": "[Compound 55, [({(1E)-[1-allyl-5-(2-naphthylmethoxy)-1H-indol-3-yl]methylidene}amino)oxy]acetic acid]", "inhibition at 100 µM": 81}, {"smiles": "O=C(O)CO/N=C/c1ccc(OCc2ccc(F)c(F)c2)cc1OCc1ccc(F)c(F)c1", "note": "[Compound 131, {[((1E)-{2,4-bis[(3,4-difluorobenzyl)oxy]phenyl}methylidene)amino]oxy}acetic acid]", "inhibition at 100 µM": 88}, {"smiles": "O=C(O)CO/N=C/c1cccc(OCc2ccc(F)c(F)c2)c1OCc1ccc(F)c(F)c1", "note": "[Compound 141, {[((1E)-{2,3-bis[(3,4-difluorobenzyl)oxy]phenyl}methylidene)amino]oxy}acetic acid]", "inhibition at 100 µM": 48}, {"smiles": "Cc1ccc(COc2cccc(-c3ccc(/C=N/OCC(=O)O)cc3)c2)cc1", "note": "[Compound 99, {[((1E)-{3′-[(4-methylbenzyl)oxy]-1,1′-biphenyl-4-yl}methylidene)amino]oxy}acetic acid]", "inhibition at 100 µM": 84}]}]}
